Source: patent US20140296137A1, “METHODS AND COMPOSITIONS FOR CONTROLLING ROTIFERS” (Los Alamos National Security, LLC, priority 2013, published 2014)
Like-named read-outs stand apart in the source and are kept apart here. Ends that are not written are not given here.

Experiments:
Adineta vaga = type: in vivo; design: key to the marks not given beside the values; details: AMP 0.5 mg/mL, 24 hr time point, room temperature, visual motility score
From the text: (§1) Briefly, the rotifer motility assay used herein in the presence of a biocontrol agent (e.g., AMP) may be used as a measure of relative rotifer viability and competency. Rotifer diet, of which algae is considered to be an important food source, is one of the key environmental factors that impact the growth and multiplication of rotifers. In effect, the inability of a rotifer to be mobile (i.e., inability to swim toward a food source and/or to have mobile cilia that help trap food) prevents the rotifer from ingesting sufficient nutrients to further grow and reproduce. Thus, any approach that reduces and/or inhibits rotifer motility has a significant impact on an individual rotifer and therefore rotifer populations. With respect to algae cultures, reducing and/or inhibiting rotifer motility prevents and/or reduces any negative impact rotifers have on algae cultures (e.g., open pond systems for algae biomass and biofuel production). In other words, reducing and/or inhibiting rotifer motility reduces and/or prevents rotifers (e.g., infestations) from ingesting and consequently damaging algae cultures use in biofuel production.
(§2) The effect of the insecticidal and non-insecticidal AMPs of Table 2 (Example 1) on three different rotifer species was measured. The three rotifer species were Adineta vaga and Philodina acuticornis (class Bdelloid rotifers), and Brachionus (Monogononta class). A visual motility assay was used to determine the impact of the individual AMPs on rotifer viability. In each case, a light microscope with 20× magnification was used to observe rotifer motility (activity). […] FIGS. 1A, 1C and 1E show a 20× magnification of Adineta vaga, Philodina acuticornis and Brachionus (untreated), respectively. FIGS. 1B, 1D and 1F show a 20× magnification of Adineta vaga, Philodina acuticornis and Brachionus (AMP treated), respectively.
(§3) Rotifer cultures were initiated in 12-well or 24-well plates at a density of approximately 100-200 rotifers/mL. The 12-well plates contained a volume of 1 mL per well, and the 24-well plates contained a volume of about 0.25 mL to about 0.35 mL per well. Individual rotifer cultures (individual wells) were incubated with a select AMP at a concentration of 0.5 mg/mL (or a range of about 78 μM to about 365 μM) for 18, 21 and 24 hours at room temperature. The rotifer cultures were monitored by preparing microscopy slides with a small sample taken from the individual wells. The slides were then visualized under a 20× magnification microscope for rotifer motility. […] The scoring system was based on observing a subset of the rotifer population from each well. The impact on the subset of rotifers observed served as a representative of the impact on the entire rotifer population for that particular AMP treatment.
(§4) A summary of the motility assay (or “Kill Assay”) for each insecticidal and non-insecticidal AMP incubated with the three different rotifer species for the 24 hour time point is provided below in Table 5 (insecticidal AMPs) and Table 6 (non-insecticidal AMPs). The 18 and 21 hour time points gave similar results to the 24 hour time point.

Philodina acuticornis = type: in vivo; design: key to the marks not given beside the values; details: AMP 0.5 mg/mL, 24 hr time point, room temperature, visual motility score
From the text: as §1, §2, §3, §4

Brachionus = type: in vivo; details: AMP 0.5 mg/mL, 24 hr time point, room temperature, visual motility score
From the text: as §1, §2, §3, §4

[1] = tested on: Chlamydomonas reinhardtii; details: 5-6 days, room temperature, 96-well, algae colour under 20× microscope; ND = AMP killed all the algae
Procedure: (§5) This example provides the minimal inhibitory concentration (MIC) of antimicrobial peptides (AMPs) for algae. […] Therefore, the tolerance of algae to the AMPs listed in Table 2 of Example 1 was measured.
(§6) Briefly, the algae viability assay used herein measured the “health” of the algae cultures by looking at the color of the algae. […] A visual assay was used to determine the MIC for the individual AMPs on the algae. In each case, a light microscope with 20× magnification was used to observe algae color.
(§7) The effect of insecticidal and non-insecticidal AMPs on three different algae species was measured. The three algae species were Auxenochlorella protothecoides, Chlorella sorokiniana and Chlamydomonas reinhardtii.
(§8) Algae cultures were initiated in 96-well plates at an OD 750 of approximately 0.1. […] The antibiotics hygromycin and paromycin served as positive controls for inhibiting and/or reducing the growth rate of algae. […] The algae cultures were monitored by preparing microscopy slides with a small sample taken from the individual wells. The algae slides were then visualized under a 20× magnification microscope for algae viability as measured by algae color.

Chlorella protothecoides = details: 5-6 days, room temperature, 96-well, algae colour under 20× microscope; ND = AMP killed all the algae
Procedure: as §5, §6, §7, §8

Chlorella sorokiniana = tested on: Chlorella sorokiniana
Procedure: as §5, §6, §7, §8

[2] = 5-6 days, room temperature, 96-well, algae colour under 20× microscope, ND = AMP killed all the algae

| Molecule | “Kill” Efficiency Adineta vaga (Adineta vaga) | “Kill” Efficiency Philodina (Philodina acuticornis) | “Kill” Efficiency Brachionus (Brachionus) | Minimal Inhibitory Concentration (MIC) Chlamydomonas reinhardtii [1] | Minimal Inhibitory Concentration (MIC) Chlorella protothecoides (Chlorella protothecoides) | Minimal Inhibitory Concentration (MIC) Chlorella sorokiana (Chlorella sorokiniana; [2]) [µM] | Minimal Inhibitory Concentration (MIC) Chlorella sorokiana (Chlorella sorokiniana) [µM] |
| --- | --- | --- | --- | --- | --- | --- | --- |
| GIWGTALKWGVKLLPKLVGMAQTKKQ [Ponericin W4] | +++ | +++ | +++ | 11 µM | 43.8 µM | 87.6 | – |
| KWKLFKKIEKVGQNIRDGIIKAGPAVAVVGQATQIAK [Cecropin A] | +++ | ++ | – | 15.6 µM | 124.9 µM | 124.9 | – |
| WLGSALKIGAKLLPSVVGLFKKKKQ [Ponericin W1] | +++ | +++ | +++ | 11.5 µM | 23.1 µM | 46.1 | – |
| FFHHIFRGIVHVGKTIHKLVTG [Piscidin 2] | +++ | +++ | +++ | – | 24.6 µM | – | 24.6 |
| GIGKFLHSAKKFGKAFVGEIMNS [Magainin 2] | +++ | +++ | + | – | – | – | 50.7 |
| GWKDWAKKAGGWLKKKGPGMAKAALKAAMQ [Ponericin G1] | +++ | +++ | +++ | 19.5 µM | 78 µM | 155.8 | – |
| LLKELWTKIKGAGKAVLGKIKGLL [Ponericin L2] | +++ | +++ | – | 12.1 µM | 48.5 µM | 97 | – |
| FWGALIKGAAKLIPSVVGLFKKKQ [Ponericin W5] | +++ | +++ | +++ | 12 µM | 12 µM | 24 | – |
| FSFKRLKGFAKKLWNSKLARKIRTKGLKYVKNFAKDMLSEGEEAPPAAEPPVEAPQ [Im-1] | +++ | +++ | +++ | 9.9 µM | 9.9 µM | 19.7 | – |
| IWLTALKFLGKHAAKHLAKQQLSKL [Lycotoxin-1, Lycotoxin I] | +++ | +++ | +++ | 22 µM | 44 µM | 88 | – |
| GIWGTLAKIGIKAVPRVISMLKKKKQ [Ponericin W3] | +++ | +++ | +++ | 5.5 µM | 21.8 µM | 87.3 | – |
| KWKLFKKIGIGKFLHWAKKF [W16-CA(1-8)-MA(1-12)] | +++ | +++ | + | 12.5 µM | ND (kills) | 25 | – |
| CC[C@H](C)[C@H](NC(=O)CN)C(=O)NCC(=O)N[C@@H](C)C(=O)N[C@H](C(=O)N[C@@H](CC(C)C)C(=O)N[C@@H](CCCCN)C(=O)N[C@H](C(=O)N[C@@H](CC(C)C)C(=O)N[C@H](C(=O)N[C@H](C(=O)NCC(=O)N[C@@H](CC(C)C)C(=O)N1CCC[C@H]1C(=O)N[C@@H](C)C(=O)N[C@@H](CC(C)C)C(=O)N[C@H](C(=O)N[C@@H](CO)C(=O)N[C@@H](Cc1c[nH]c2ccccc12)C(=O)N[C@H](C(=O)N[C@@H](CCCCN)C(=O)N[C@@H](CCCNC(=N)N)C(=O)N[C@@H](CCCCN)C(=O)N[C@@H](CCCNC(=N)N)C(=O)N[C@@H](CCC(N)=O)C(=O)N[C@@H](CCC(N)=O)C(N)=O)[C@@H](C)CC)[C@@H](C)CC)[C@@H](C)O)[C@@H](C)O)C(C)C)C(C)C [Melittin] | +++ | +++ | – | ND (kills) | 11 µM | 11 | – |
| MASRHMFLPLIGRVLSGIL [MsrA3] | +++ | +++ | + | 29.6 µM | 59.2 µM | – | – |
| FIHHIFRGIVHAGRSIGRFLTG [Piscidin 3] | +++ | +++ | +++ | – | – | – | 100.3 |
| GLVDVLGKVGGLIKKLLP [Ponericin G6] | – | – | +++ | 17.2 µM | 274.9 µM | 274.9 | – |
| DFKDWMKTAGEWLKKKGPGILKAAMAAAT [Ponericin G4] | – | – | – | 19.8 µM | 158 µM | 79 | – |
| GFGSLFKFLAKKVAKTVAKQAAKQGAKYVANKHME [Cupiennin 1D] | +++ | +++ | – | 32.9 µM | 16.5 µM | 65.9 | – |
